Measurements published in ChEMBL document CHEMBL5291721, “A preclinical secondary pharmacology resource illuminates target-adverse drug reaction associations of marketed drugs” (Nat Commun, 2023).

Columns and labels:
D(3) dopamine receptor = D(3) dopamine receptor (Homo sapiens, UniProt P35462)
Adenosine receptor A3 = target: T1, Adenosine receptor A3 (Homo sapiens, UniProt P0DMS8)
T1 sequence (P0DMS8 whole entry): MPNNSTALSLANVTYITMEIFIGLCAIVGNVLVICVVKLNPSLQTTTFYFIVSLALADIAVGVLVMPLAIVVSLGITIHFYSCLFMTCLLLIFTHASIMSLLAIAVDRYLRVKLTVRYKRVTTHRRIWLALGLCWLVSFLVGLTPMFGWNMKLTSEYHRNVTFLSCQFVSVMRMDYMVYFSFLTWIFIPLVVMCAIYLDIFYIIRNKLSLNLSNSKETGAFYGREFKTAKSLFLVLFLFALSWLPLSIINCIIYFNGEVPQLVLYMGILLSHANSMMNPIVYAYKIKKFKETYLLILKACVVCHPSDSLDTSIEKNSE

[1] = target: T2, Alpha-1A adrenergic receptor (Homo sapiens, UniProt P35348); assay type: functional, cell-based
T2 sequence (P35348 whole entry): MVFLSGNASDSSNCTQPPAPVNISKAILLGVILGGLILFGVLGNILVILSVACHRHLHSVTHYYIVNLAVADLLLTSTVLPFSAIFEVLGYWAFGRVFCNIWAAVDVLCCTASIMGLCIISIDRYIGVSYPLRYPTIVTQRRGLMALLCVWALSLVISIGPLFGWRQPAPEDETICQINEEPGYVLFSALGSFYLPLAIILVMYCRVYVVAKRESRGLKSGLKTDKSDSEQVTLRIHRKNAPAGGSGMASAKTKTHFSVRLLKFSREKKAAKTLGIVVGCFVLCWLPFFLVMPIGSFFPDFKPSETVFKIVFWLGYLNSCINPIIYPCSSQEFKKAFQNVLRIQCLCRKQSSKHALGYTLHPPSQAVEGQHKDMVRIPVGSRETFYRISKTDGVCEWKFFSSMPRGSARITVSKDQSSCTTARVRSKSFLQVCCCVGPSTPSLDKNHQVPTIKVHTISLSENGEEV

[2] = target: Voltage-gated inwardly rectifying potassium channel KCNH2 (Homo sapiens, UniProt Q12809); assay type: functional; settings: read-out: AC50
Sequence of Voltage-gated inwardly rectifying potassium channel KCNH2 (Q12809 whole entry): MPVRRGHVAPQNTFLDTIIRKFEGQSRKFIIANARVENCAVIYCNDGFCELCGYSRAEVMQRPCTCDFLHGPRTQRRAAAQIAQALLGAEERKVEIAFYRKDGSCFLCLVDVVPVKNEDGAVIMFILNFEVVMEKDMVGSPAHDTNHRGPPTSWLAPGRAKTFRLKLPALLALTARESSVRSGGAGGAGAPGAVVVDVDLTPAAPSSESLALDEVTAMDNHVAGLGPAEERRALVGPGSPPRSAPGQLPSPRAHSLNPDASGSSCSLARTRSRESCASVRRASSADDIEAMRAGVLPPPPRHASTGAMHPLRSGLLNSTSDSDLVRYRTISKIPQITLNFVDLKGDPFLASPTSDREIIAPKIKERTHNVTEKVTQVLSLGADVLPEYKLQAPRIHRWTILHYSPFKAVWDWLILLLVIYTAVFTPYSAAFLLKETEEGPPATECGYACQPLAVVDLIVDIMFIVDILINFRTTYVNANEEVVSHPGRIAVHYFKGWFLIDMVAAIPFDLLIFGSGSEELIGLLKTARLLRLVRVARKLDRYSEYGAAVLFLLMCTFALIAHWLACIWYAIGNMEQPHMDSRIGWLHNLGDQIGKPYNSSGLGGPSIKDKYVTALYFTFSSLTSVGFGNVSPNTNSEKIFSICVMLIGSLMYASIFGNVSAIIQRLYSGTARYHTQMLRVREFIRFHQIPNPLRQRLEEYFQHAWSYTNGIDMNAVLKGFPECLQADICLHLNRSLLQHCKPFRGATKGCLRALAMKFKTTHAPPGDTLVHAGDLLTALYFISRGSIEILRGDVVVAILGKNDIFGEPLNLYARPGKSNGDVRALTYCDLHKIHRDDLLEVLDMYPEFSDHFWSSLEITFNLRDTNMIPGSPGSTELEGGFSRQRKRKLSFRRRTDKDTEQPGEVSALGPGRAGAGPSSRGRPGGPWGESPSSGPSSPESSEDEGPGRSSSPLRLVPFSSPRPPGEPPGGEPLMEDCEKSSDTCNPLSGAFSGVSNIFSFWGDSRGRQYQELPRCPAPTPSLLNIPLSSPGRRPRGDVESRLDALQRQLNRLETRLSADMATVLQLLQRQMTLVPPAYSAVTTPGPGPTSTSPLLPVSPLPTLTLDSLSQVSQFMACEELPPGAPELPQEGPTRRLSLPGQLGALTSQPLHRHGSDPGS

Thromboxane A2 receptor [3] = target: T3, Thromboxane A2 receptor (Homo sapiens, UniProt P21731); assay type: functional, cell-based
T3 sequence (P21731 whole entry): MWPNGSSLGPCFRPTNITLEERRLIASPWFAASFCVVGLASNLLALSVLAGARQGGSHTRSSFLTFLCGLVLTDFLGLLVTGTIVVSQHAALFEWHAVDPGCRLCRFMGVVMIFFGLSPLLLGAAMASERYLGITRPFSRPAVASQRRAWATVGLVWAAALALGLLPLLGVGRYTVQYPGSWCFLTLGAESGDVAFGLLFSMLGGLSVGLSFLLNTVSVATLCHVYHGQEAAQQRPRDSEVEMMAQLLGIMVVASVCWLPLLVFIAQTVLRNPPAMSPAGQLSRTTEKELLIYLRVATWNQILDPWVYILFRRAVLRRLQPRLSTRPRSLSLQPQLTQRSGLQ

[4] = target: T4, Amine oxidase [flavin-containing] A (Homo sapiens, UniProt P21397); assay type: functional
T4 sequence (P21397 whole entry): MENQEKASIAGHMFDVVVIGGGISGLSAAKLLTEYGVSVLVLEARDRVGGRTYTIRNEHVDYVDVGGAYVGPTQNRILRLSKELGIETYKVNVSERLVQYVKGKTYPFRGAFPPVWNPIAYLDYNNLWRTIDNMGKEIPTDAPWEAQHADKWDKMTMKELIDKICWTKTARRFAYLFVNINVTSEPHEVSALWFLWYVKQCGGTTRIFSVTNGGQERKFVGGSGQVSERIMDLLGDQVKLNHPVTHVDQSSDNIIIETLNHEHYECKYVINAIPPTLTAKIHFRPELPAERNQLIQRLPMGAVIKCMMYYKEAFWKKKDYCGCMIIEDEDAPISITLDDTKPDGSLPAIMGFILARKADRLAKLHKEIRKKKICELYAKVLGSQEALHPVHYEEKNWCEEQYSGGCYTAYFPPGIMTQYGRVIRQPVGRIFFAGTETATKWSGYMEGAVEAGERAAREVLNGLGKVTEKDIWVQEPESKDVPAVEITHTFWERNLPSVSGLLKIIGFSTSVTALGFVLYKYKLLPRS

Prothrombin = Prothrombin (Homo sapiens, UniProt P00734); assay type: functional
[5] = target: T5, Prostaglandin G/H synthase 1 (Homo sapiens, UniProt P23219); assay type: functional
T5 sequence (P23219 whole entry): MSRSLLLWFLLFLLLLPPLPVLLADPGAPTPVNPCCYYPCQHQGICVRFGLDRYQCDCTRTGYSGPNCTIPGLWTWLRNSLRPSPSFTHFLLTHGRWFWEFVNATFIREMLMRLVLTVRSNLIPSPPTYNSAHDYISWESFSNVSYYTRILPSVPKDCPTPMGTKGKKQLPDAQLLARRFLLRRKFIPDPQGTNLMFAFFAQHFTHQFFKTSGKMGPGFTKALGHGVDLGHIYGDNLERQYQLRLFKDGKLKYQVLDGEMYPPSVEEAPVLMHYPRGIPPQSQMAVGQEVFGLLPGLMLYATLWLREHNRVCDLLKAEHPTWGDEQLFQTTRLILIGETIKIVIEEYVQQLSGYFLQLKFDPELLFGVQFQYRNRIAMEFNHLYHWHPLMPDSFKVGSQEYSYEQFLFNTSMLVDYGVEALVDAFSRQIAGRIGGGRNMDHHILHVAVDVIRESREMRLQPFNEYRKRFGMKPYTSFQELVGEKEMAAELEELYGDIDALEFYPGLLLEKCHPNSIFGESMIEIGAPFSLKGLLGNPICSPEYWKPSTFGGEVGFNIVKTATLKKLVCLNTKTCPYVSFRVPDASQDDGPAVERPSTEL

[6] = target: cGMP-inhibited 3',5'-cyclic phosphodiesterase 3A (Homo sapiens, UniProt Q14432); assay type: functional
Sequence of cGMP-inhibited 3',5'-cyclic phosphodiesterase 3A (Q14432 whole entry): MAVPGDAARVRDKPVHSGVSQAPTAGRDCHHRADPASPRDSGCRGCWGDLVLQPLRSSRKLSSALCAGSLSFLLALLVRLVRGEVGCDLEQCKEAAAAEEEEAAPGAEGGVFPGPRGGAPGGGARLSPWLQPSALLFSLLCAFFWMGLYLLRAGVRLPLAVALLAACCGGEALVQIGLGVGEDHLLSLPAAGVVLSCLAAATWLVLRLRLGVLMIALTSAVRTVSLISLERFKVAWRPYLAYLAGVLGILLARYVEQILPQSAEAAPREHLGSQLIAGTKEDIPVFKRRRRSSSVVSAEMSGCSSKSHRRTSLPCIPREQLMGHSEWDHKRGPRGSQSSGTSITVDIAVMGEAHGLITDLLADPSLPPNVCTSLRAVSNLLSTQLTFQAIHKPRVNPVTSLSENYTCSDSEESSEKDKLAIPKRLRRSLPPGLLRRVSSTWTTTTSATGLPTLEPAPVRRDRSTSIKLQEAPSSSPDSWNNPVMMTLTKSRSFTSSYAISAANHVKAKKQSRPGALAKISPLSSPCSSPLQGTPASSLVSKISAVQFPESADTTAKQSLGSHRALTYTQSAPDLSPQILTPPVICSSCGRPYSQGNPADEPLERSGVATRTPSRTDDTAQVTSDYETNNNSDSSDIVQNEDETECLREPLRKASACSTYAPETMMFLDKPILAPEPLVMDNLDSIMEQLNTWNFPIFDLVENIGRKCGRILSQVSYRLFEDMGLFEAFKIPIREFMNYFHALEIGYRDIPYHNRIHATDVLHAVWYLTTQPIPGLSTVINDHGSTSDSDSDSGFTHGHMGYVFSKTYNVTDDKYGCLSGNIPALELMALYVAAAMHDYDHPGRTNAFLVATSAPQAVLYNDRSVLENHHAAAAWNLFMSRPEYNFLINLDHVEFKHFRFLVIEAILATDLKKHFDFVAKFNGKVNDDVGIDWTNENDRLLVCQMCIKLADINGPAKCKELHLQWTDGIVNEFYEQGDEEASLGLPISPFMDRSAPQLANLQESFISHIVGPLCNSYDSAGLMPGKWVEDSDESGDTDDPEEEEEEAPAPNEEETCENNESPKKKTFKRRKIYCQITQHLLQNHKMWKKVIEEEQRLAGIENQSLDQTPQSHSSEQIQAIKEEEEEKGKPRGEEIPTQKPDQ

Acetylcholinesterase = Acetylcholinesterase (Homo sapiens, UniProt P22303); assay type: functional
[7] = target: 5-hydroxytryptamine receptor 2B (Homo sapiens, UniProt P41595); assay type: functional, cell-based
Sequence of 5-hydroxytryptamine receptor 2B (P41595 whole entry): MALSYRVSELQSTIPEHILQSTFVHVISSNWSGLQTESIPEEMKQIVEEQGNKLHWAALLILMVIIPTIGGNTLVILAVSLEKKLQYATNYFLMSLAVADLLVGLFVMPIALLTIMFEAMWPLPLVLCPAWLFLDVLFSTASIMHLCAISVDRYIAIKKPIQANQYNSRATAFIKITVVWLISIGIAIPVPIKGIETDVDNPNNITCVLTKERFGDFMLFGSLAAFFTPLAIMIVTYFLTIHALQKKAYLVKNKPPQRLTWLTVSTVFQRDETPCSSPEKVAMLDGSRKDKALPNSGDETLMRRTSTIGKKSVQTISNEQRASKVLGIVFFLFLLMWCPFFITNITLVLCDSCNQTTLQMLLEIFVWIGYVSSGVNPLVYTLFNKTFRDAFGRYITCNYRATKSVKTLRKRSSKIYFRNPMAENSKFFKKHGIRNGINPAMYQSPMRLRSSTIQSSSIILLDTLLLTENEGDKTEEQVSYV

Thromboxane A2 receptor [8] = target: T3, Thromboxane A2 receptor; assay type: functional, cell-based; remark: listed apart in the source
[9] = target: Sodium-dependent dopamine transporter (Homo sapiens, UniProt Q01959)
Sequence of Sodium-dependent dopamine transporter (Q01959 whole entry): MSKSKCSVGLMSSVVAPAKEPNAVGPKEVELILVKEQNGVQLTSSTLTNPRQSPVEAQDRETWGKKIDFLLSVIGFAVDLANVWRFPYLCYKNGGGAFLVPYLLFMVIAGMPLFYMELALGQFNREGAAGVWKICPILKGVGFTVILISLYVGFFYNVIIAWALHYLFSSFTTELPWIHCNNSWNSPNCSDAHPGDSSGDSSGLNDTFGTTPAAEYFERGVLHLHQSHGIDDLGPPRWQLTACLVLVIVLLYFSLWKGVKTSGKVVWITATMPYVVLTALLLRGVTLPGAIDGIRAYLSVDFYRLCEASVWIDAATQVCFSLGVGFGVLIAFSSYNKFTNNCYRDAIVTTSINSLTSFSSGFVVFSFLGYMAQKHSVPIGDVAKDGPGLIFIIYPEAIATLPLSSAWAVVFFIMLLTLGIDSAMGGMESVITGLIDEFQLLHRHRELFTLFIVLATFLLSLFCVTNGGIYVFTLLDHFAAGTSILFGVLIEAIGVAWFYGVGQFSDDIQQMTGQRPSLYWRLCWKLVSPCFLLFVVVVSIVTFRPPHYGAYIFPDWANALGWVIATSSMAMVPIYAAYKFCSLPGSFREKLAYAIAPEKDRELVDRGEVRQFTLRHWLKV

[10] = target: T5, Prostaglandin G/H synthase 1; assay type: functional; remark: listed apart in the source
Mu-type opioid receptor = Mu-type opioid receptor (Homo sapiens, UniProt P35372)
Sequence of Mu-type opioid receptor (P35372 whole entry): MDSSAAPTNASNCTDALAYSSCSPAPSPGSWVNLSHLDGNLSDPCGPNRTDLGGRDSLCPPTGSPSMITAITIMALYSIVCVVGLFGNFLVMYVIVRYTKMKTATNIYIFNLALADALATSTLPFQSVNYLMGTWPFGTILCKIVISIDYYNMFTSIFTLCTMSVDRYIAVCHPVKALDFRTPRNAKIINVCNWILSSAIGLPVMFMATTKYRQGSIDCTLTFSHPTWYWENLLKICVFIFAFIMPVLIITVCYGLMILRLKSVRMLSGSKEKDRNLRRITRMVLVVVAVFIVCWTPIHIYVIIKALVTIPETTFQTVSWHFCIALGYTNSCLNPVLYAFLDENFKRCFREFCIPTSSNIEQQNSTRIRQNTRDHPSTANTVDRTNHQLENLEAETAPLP

Estrogen receptor = target: T6, Estrogen receptor (Homo sapiens, UniProt P03372)
T6 sequence (P03372 whole entry): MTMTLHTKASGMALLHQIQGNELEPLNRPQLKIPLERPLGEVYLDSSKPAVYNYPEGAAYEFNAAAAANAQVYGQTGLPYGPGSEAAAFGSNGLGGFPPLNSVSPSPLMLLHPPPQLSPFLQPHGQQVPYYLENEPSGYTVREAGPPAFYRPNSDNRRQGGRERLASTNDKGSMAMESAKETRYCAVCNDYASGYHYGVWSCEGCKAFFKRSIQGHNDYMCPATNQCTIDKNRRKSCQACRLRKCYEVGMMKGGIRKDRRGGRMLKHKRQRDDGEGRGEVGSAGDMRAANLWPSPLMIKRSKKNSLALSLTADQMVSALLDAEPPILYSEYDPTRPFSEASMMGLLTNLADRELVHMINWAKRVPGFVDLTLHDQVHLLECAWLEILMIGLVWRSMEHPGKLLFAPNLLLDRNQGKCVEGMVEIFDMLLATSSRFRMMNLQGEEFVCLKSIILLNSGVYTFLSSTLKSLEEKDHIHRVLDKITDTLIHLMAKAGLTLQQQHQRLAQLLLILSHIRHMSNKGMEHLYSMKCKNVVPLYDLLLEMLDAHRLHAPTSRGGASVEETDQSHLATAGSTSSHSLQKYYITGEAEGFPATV
Further: assay procedure not described here.

Sequence of D(3) dopamine receptor (P35462 whole entry): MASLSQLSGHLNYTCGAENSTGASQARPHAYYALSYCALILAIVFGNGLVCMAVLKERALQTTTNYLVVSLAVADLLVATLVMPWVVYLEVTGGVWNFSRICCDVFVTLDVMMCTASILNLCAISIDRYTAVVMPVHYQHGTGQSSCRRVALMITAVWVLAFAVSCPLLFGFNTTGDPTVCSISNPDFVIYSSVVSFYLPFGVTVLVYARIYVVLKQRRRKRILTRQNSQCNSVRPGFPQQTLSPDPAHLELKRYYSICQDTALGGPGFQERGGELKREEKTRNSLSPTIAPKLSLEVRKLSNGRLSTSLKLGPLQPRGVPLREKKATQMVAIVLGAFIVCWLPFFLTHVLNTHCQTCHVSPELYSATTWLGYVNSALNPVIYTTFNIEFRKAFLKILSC

SMILES | AC50 (D(3) dopamine receptor) [µM] | AC50 (Adenosine receptor A3) [µM] | AC50 [1] [µM] | AC50 [2] [µM] | AC50 (Thromboxane A2 receptor [3]) [µM] | AC50 [4] [µM] | AC50 (Prothrombin) [µM] | AC50 [5] [µM] | AC50 [6] [µM] | AC50 (Acetylcholinesterase) [µM] | AC50 [7] [µM] | AC50 (Thromboxane A2 receptor [8]) [µM] | AC50 [9] [µM] | AC50 [10] [µM] | AC50 (Mu-type opioid receptor) [µM] | AC50 (Estrogen receptor) [µM]
CCC1(c2cccc(O)c2)CCCCN(C)C1 (configuration not stated) [MEPTAZINOL] | > 30 | > 30 | > 30 | > 30 | > 30 | > 30 | > 30 | > 3 | > 30 | 5.51 | > 30 | > 30 | > 30 | > 30 |  | 
CO[C@@]12[C@H](COC(N)=O)C3=C(C(=O)C(C)=C(N)C3=O)N1C[C@@H]1N[C@@H]12 [MITOMYCIN] | > 30 | > 30 | > 30 |  | > 30 | > 30 | > 30 | > 30 | > 30 | > 30 | > 30 | > 30 | > 30 | > 30 | > 30 | 
NC(=O)c1cccc2cn(-c3ccc([C@@H]4CCCNC4)cc3)nc12 [NIRAPARIB] | > 30 |  | > 30 | > 30 | > 30 | > 30 | > 30 | > 30 | > 30 | > 30 | > 30 | > 30 | 0.113 | > 30 | > 30 | > 30
Oc1cccc2cccnc12 [OXYQUINOLINE] | > 30 | > 30 | 20.8 |  | > 30 | > 30 | > 30 | > 30 | > 30 | > 30 | > 30 | > 30 | > 30 | > 30 | > 30 | 
O=C(O)CCn1c2c(c3ccccc31)C[C@H](NS(=O)(=O)c1ccc(F)cc1)CC2 [RAMATROBAN] | > 30 |  | > 30 | > 30 | 0.04 | > 30 | > 30 | > 30 | > 30 | > 30 | > 30 | > 30 | > 30 | > 30 | > 30 | > 10
COc1cc(NCc2ccc3nc(N)nc(N)c3c2C)cc(OC)c1OC [TRIMETREXATE] | 2.67 |  | > 30 | 2.16 | > 30 | 3.8 | > 30 | 2.4 | 11.9 | 1.62 | > 30 | > 30 | 9.54 | 28.1 | 1.2 | 23
